Experiment [1] relates to Human platelet aggregation caused by ADP. Put plainly: Inhibition of ADP-induced platelet aggregation (Mimic-human PRP). The class given is cell-based. The following applies: 20 μM ADP, human platelet concentrate diluted with PPP, absorption at 595 nm. Summed up: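 Human PRP diluted with PPP to 3–4×10^8 platelets/mL was preincubated 20 min at room temperature with compound (0.01–30 μM, DMSO), then stimulated with 20 μM ADP. Aggregation read as A595 increase at 3 min versus 0 and 20 μM ADP controls; Ki from sigmoidal non-linear regression.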

Another experiment deals with T1, Human P2Y12 receptor (Homo sapiens, UniProt Q9H244).
T1 construct: expressed in transfected cells; host or cells: HEK cells
Briefly: Human P2Y12 receptor cell membrane binding assay with [3H] 2-Mes-ADP. As to conditions: 1 nM [3H] 2-Mes-ADP, membranes of HEK cells expressing P2Y12 receptor; read-out: Binding activity (IC50). In short, it runs like this:
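Membranes from HEK cells expressing human P2Y12 were incubated with compound and 1 nM [3H]2-MeS-ADP for 1 h at room temperature. Bound radioactivity was collected by GF/B filtration.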

Where only a bound is given, the exact number is not on record here.

T1 sequence (Q9H244 whole entry): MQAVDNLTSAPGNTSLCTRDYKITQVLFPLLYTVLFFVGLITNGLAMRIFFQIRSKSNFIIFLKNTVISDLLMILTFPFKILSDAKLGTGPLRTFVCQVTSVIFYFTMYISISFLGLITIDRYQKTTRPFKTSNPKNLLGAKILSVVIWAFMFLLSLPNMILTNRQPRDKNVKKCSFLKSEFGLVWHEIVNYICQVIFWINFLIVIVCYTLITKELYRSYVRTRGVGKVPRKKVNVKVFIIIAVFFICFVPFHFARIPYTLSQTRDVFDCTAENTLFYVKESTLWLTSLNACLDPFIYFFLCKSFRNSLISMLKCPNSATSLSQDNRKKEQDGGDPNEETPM

For orientation: Ki means a measure of affinity in units of concentration, obtained from inhibition or displacement. For orientation: IC50 means the concentration needed to halve the response being measured. In experiment [1], `CCCc1cc2c(N3CCn4c(nnc4C(F)(F)F)C3)nc(N3CCC(OC)C3)nc2s1` (centres unmarked) [Example 1-24, 7-[2-(3-Methoxy-pyrrolidin-1-yl)-6-propyl-thieno[2,3-d]pyrimidin-4-yl]-3-trifluoromethyl-5,6,7,8-tetrahydro-[1,2,4]triazolo[4,3-a]pyrazine] displayed a Ki of 88 nM. In addition, the concentration for half-maximal inhibition (IC50) at Human P2Y12 receptor stood at 54 nM.
In the case of `CCCc1cc2c(N3CCn4c(nnc4C(F)(F)F)C3)nc(N3CCN(C)C(=O)C3)nc2s1` [Example 1-25, 1-Methyl-4-[6-propyl-4-(3-trifluoromethyl-5,6-dihydro-8H-[1,2,4]triazolo[4,3-a]pyrazin-7-yl)-thieno[2,3-d]pyrimidin-2-yl]-piperazin-2-one], the affinity in experiment [1], expressed as Ki, was 100 nM. Also, the half-maximal inhibitory concentration (IC50) on Human P2Y12 receptor stood at 32 nM.
With `CCCc1cc2c(N3CCn4c(nnc4C(F)(F)F)C3)nc(N3CCC(O)CC3)nc2s1` [Example 1-26, 1-[6-Propyl-4-(3-trifluoromethyl-5,6-dihydro-8H-[1,2,4]triazolo[4,3-a]pyrazin-7-yl)-thieno[2,3-d]pyrimidin-2-yl]-piperidin-4-ol], affinity in experiment [1] was put at a Ki of 1200 nM. The IC50 on Human P2Y12 receptor worked out at 60 nM.
In experiment [1], `CCCc1cc2c(N3CCn4c(nnc4C(F)(F)F)C3)nc(N3CCCC(O)C3)nc2s1` (centres unmarked) [Example 1-27, 1-[6-Propyl-4-(3-trifluoromethyl-5,6-dihydro-8H-[1,2,4]triazolo[4,3-a]pyrazin-7-yl)-thieno[2,3-d]pyrimidin-2-yl]-piperidin-3-ol] registered a Ki of 72 nM. Further, the half-inhibitory concentration (IC50) at Human P2Y12 receptor turned out to be 56 nM.
Compound `CCCc1cc2c(N3CCn4c(nnc4C(F)(F)F)C3)nc(N3CCCCC3CO)nc2s1` (centres unmarked) [Example 1-28, {1-[6-Propyl-4-(3-trifluoromethyl-5,6-dihydro-8H-[1,2,4]triazolo[4,3-a]pyrazin-7-yl)-thieno[2,3-d]pyrimidin-2-yl]-piperidin-2-yl}-methanol] returned a Ki in experiment [1] of 176 nM. The IC50 at Human P2Y12 receptor turned out to be 40 nM.
For `CCCc1cc2c(N3CCn4c(nnc4C(F)(F)F)C3)nc(N3CCCC(CO)C3)nc2s1` (centres unmarked) [Example 1-29, {1-[6-Propyl-4-(3-trifluoromethyl-5,6-dihydro-8H-[1,2,4]triazolo[4,3-a]pyrazin-7-yl)-thieno[2,3-d]pyrimidin-2-yl]-piperidin-3-yl}-methanol], in that order: 60 nM and 50 nM.
`CCCc1cc2c(N3CCn4c(nnc4C(F)(F)F)C3)nc(N3CCCC3CO)nc2s1` (centres unmarked) [Example 1-30, {1-[6-Propyl-4-(3-trifluoromethyl-5,6-dihydro-8H-[1,2,4]triazolo[4,3-a]pyrazin-7-yl)-thieno[2,3-d]pyrimidin-2-yl]-pyrrolidin-2-yl}-methanol] displayed a Ki in experiment [1] of 90 nM. Also, on Human P2Y12 receptor, the IC50 worked out at 66 nM.
Take `CCCc1cc2c(N3CCn4c(nnc4C(F)(F)F)C3)nc(NC3CCCC3)nc2s1` [Example 1-31, Cyclopentyl-[6-propyl-4-(3-trifluoromethyl-5,6-dihydro-8H-[1,2,4]triazolo[4,3-a]pyrazin-7-yl)-thieno[2,3-d]pyrimidin-2-yl]-amine]: the inhibitory constant (Ki) in experiment [1] turned out to be 7600 nM. The IC50 at Human P2Y12 receptor was 110 nM.
For the compound `CCCc1cc2c(N3CCn4c(nnc4C(F)(F)F)C3)nc(NCc3ccccc3)nc2s1` [Example 1-32, Benzyl-[6-propyl-4-(3-trifluoromethyl-5,6-dihydro-8H-[1,2,4]triazolo[4,3-a]pyrazin-7-yl)-thieno[2,3-d]pyrimidin-2-yl]-amine], the Ki in experiment [1] is more than 4000 nM. Also, the IC50 on Human P2Y12 receptor was 95 nM.
Compound `CCCc1cc2c(N3CCn4c(nnc4C(F)(F)F)C3)nc(N[C@@H]3C[C@H](OCCO)[C@@H](O)[C@H]3O)nc2s1` [Example 1-33, (1S,2S,3S,5R)-3-(2-Hydroxy-ethoxy)-5-[6-propyl-4-(3-trifluoromethyl-5,6-dihydro-8H-[1,2,4]triazolo[4,3-a]pyrazin-7-yl)-thieno[2,3-d]pyrimidin-2-ylamino]-cyclopentane-1,2-diol] yielded an inhibition constant Ki in experiment [1] of 250 nM. In addition, on Human P2Y12 receptor, the half-maximal inhibitory concentration (IC50) was 780 nM.
